Values quoted from earlier work as cited in patent US20150224078A1, “Methods for the Treatment of Lung Diseases with Mast Cell Stabilizers” (Patara Pharma, LLC, priority 2014, published 2015).

Details: Richards et al, 1987

For `O=C(O)c1cc(=O)c2c(OCC(O)COc3cccc4oc(C(=O)O)cc(=O)c34)cccc2o1` [cromolyn sodium], the oral bioavailability is listed as “about 1%”.
